Measurements reported in patent US20140135310A1, “SULPHONAMIDE DERIVATIVES OF ALICYCLIC AMINES FOR THE TREATMENT OF CENTRAL NERVOUS SYSTEM DISEASES” (Adamed Sp. z o.o., priority 2011, published 2014).

Experiments:
[1] = test system: α1 adrenergic receptors (rat cerebral cortex); assay: Radioligand binding assay, adrenergic α1 receptors; conditions: test compound 1×10^−6 M
In short: (§1)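 Values derive from radioligand displacement, with non-specific binding defined by excess cold ligand and detection by scintillation. Hill-fit IC50s were converted to Ki via Cheng-Prusoff using Scatchard-derived Kd; percent inhibition of control specific binding also reported.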

[2] = target: T1, 5-HT2C receptor (Homo sapiens, UniProt P28335); assay: Radioligand binding assay, serotoninergic 5-HT2C receptors; conditions: test compound 1×10^−6 M
T1 construct: expressed in transfected cells; host or cells: HEK-293 cells
T1 sequence (P28335 33-458): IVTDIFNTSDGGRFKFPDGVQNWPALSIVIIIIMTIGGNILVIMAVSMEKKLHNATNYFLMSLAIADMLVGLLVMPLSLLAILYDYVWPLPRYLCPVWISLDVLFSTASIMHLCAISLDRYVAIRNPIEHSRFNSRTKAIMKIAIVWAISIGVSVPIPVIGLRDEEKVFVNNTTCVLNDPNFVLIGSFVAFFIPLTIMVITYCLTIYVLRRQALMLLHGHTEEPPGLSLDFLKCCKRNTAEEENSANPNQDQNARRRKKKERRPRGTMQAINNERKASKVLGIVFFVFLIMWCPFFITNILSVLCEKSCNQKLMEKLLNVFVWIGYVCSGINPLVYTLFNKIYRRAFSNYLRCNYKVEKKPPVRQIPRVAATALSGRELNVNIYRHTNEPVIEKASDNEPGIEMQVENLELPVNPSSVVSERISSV

[3] = target: dopaminergic receptors D3 (Homo sapiens, UniProt P35462); assay: Radioligand binding assay, dopaminergic D3 receptors; conditions: test compound 1×10^−6 M
In short: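 Scintillation read-out. Specific = total − nonspecific (excess cold ligand). Data as % of control specific binding / % inhibition; IC50 by Hill fit; Ki = IC50/(1+L/KD), KD from Scatchard plot.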

[4] = target: dopaminergic receptors D2 (Homo sapiens, UniProt P14416); assay: Radioligand binding assay, dopaminergic D2 receptors; conditions: binding assay, test compound 1×10^−6 M
In short: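 Displacement of radioligand from human dopamine D2, D3 or D4.4 receptors, counted by scintillation; specific binding is total minus binding under excess unlabelled ligand. IC50 values come from Hill curve fits of percent inhibition, then converted to Ki by Cheng-Prusoff using Scatchard-derived KD.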

[5] = target: T2, H1 histaminergic receptors (Homo sapiens, UniProt P35367); assay: Radioligand binding assay, histaminergic H1 receptors; conditions: human recombinant (HEK-293 cells), [3H]pyrilamine 1 nM
T2 construct: expressed in transfected cells; host or cells: HEK-293 cells
In short: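 Competition binding at human H1 receptors; specific binding taken as total minus non-specific binding in excess unlabelled ligand, scintillation read-out. IC50 from Hill-equation fit of competition curves; Ki by Cheng-Prusoff using radioligand concentration and Kd (from Scatchard plot).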

[6] = target: T3, 5-HT2A receptor (Homo sapiens, UniProt P28223); assay: Radioligand binding assay, serotoninergic 5-HT2A receptors; conditions: binding assay result in %, Table 5a
T3 construct: purchased PerkinElmer
In short: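 Competition curves from scintillation-counted specific binding (total minus binding with excess unlabelled ligand) were Hill-fitted to give IC50, converted to Ki via Cheng-Prusoff using Scatchard-derived Kd.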

[7] = target: T4, 5-HT1A receptor (rat hippocampus) (Rattus norvegicus, UniProt P19327); assay: Radioligand binding assay, serotoninergic 5-HT1A receptors; conditions: binding assay result in %, Table 5a;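 further: test compound at 1 µM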
T4 construct: hippocampus; from tissue; host or cells: rat hippocampus
T4 sequence (P19327 1-422): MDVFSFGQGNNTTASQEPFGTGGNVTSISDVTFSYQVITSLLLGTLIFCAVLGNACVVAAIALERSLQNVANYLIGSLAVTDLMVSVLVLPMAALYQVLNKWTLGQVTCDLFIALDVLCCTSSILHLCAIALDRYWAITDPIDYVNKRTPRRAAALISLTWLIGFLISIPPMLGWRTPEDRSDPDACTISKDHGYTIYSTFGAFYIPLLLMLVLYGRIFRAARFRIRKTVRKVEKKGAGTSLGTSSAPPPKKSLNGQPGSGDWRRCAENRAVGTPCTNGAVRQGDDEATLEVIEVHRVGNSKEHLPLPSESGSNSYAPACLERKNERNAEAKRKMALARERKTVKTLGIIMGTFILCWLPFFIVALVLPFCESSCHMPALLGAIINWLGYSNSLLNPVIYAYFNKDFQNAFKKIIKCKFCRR

[8] = target: T5, M3 muscarinic receptors (Homo sapiens, UniProt P20309); assay: Radioligand binding assay, muscarinic M3 receptors; conditions: test compound 1×10^−6 M
T5 construct: expressed in transfected cells; host or cells: CHO cells
In short: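 Radioligand competition binding, detected by scintillation counting; non-specific binding defined with excess unlabelled ligand. Results given as % inhibition of control specific binding; IC50 from Hill-equation fit of competition curves, Ki via Cheng-Prusoff with radioligand KD from Scatchard plot.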

[9] = test system: σ receptors; assay: Radioligand binding assay, σ receptors; conditions: rat cerebral cortex, [3H]DTG 8 nM
In short: as §1

[10] = target: T6, serotonin transporter (SERT) (Homo sapiens, UniProt P31645); assay: Radioligand binding assay, serotonin transporter (SERT); conditions: binding assay, test compound 1×10^−6 M
T6 construct: expressed in transfected cells; host or cells: CHO cells
In short: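 Values are derived from competition curves fitted by the Hill equation to give IC50, then converted to Ki by Cheng-Prusoff with radioligand Kd from Scatchard analysis. Specific binding equals total minus non-specific (excess cold ligand), counted by scintillation, and is also expressed as percent inhibition of control.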

Chain of dopaminergic receptors D2 (P14416 whole entry): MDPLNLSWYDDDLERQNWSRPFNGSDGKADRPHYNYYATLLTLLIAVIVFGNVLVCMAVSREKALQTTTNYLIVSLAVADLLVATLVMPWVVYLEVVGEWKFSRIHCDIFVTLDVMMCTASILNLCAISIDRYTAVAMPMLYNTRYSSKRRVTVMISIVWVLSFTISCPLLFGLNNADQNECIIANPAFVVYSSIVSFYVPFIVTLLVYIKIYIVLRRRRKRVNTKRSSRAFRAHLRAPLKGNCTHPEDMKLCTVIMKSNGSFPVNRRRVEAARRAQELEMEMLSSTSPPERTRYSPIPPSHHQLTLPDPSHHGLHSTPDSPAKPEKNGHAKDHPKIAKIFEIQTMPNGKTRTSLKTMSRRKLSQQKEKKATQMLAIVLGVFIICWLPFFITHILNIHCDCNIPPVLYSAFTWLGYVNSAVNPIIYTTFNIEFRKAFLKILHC
T5 sequence (P20309 whole entry): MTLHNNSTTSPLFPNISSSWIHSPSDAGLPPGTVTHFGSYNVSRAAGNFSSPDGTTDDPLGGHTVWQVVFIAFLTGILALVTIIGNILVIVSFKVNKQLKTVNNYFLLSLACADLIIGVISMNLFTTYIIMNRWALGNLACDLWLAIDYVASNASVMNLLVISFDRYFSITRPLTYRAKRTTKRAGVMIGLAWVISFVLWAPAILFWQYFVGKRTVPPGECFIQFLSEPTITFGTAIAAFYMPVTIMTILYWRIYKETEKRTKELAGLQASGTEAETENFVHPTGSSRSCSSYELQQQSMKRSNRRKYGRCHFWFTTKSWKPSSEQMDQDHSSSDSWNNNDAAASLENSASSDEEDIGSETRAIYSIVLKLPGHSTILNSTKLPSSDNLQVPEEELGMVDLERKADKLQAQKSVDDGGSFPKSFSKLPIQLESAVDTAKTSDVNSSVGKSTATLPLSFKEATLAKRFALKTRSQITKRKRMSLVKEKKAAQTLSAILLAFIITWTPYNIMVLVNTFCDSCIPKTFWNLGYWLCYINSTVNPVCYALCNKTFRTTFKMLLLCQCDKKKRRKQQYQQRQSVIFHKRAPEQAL
Chain of dopaminergic receptors D3 (P35462 whole entry): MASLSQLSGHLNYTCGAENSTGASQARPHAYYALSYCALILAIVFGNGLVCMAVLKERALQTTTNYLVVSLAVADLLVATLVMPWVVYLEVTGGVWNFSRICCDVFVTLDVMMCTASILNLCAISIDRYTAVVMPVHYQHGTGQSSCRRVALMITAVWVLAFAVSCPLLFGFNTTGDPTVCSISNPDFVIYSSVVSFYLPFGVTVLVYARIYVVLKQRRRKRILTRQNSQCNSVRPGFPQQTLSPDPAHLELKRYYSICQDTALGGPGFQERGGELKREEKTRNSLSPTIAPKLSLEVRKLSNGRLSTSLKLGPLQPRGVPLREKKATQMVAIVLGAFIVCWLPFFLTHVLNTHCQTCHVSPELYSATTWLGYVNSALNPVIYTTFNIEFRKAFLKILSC
T6 sequence (P31645 whole entry): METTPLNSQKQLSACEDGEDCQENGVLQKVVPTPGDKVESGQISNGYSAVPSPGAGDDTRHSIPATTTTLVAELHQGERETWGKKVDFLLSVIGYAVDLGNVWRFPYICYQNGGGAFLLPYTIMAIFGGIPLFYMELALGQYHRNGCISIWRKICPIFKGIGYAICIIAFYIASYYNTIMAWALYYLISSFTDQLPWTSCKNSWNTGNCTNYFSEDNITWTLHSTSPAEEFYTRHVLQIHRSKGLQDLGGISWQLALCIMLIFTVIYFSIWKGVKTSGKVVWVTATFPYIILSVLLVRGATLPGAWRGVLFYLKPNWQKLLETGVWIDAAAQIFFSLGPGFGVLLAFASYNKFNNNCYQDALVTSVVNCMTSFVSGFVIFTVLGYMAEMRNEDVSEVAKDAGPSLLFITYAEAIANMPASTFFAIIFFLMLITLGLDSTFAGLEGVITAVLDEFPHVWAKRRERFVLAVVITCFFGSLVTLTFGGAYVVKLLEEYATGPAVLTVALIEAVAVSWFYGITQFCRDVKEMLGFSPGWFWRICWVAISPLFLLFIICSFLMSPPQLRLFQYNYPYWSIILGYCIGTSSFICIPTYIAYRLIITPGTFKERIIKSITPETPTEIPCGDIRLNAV
T2 sequence (P35367 whole entry): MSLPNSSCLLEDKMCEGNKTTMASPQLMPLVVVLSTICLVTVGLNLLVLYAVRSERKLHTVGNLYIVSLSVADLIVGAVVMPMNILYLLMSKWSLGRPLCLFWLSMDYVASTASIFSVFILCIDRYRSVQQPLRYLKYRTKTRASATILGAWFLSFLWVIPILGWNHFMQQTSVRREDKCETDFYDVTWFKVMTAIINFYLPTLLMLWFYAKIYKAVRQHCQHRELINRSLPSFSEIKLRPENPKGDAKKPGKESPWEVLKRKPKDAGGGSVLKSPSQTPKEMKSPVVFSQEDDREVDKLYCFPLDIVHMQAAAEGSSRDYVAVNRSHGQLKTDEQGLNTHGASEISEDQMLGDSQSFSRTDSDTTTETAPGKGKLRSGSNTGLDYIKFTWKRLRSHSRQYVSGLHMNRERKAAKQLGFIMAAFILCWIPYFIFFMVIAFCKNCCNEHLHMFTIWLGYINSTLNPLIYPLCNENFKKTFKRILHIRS
T3 sequence (P28223 whole entry): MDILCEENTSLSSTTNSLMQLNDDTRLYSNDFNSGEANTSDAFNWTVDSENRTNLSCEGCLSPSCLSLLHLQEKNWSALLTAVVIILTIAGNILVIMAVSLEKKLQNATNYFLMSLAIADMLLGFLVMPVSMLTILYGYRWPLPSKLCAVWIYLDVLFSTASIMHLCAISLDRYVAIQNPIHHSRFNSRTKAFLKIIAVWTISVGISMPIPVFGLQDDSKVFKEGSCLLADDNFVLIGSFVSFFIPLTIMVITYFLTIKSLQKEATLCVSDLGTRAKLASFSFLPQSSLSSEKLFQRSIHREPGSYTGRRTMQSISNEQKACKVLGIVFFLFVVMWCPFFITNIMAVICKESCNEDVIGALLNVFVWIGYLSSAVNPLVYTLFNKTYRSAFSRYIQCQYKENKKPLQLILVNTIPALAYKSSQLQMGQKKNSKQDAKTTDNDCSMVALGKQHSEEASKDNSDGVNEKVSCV

N-[[1-[2-[(2,2-Dimethyl-3H-benzofuran-7-yl)oxy]ethyl]azetidin-3-yl]methyl]-3-hydroxy-benzenesulphonamide [Compound 111]
α1 [%] [1]: 68% | 5-HT2C [%] [2]: 87% | D3 [%] [3]: 87% | D2 [%] [4]: 97% | H1 [%] [5]: 38% | 5-HT2A [%] [6]: 92% | 5-HT1A [%] [7]: 99% | M3 [%] [8]: 14% | σ [%] [9]: 81% | SERT [%] [10]: 15%
